What was measured:
CDK1/cyclinB = CDK1/cyclinB (Homo sapiens, UniProt P06493); test: CDK selectivity assay, CDK1; type: biochemical; conditions: read-out: IC50 against CDK 1
Description: (§1) Compounds of the invention were tested for kinase inhibitory activity against a number of different kinases using the general protocol described in Example 129, but modified as set out below.
(§2) Kinases are diluted to a 10× working stock in 20 mM MOPS pH 7.0, 1 mM EDTA, 0.1% γ-mercaptoethanol, 0.01% Brij-35, 5% glycerol, 1 mg/ml BSA. One unit equals the incorporation of 1 nmol of phosphate per minute into 0.1 mg/ml histone H1, or CDK7 substrate peptide at […] with a final ATP concentration of 100 uM.
(§3) The substrate for all the CDK assays (except CDK7) is histone H1, diluted to 10× working stock in 20 mM MOPS pH 7.4 prior to use. The substrate for CDK7 is a specific peptide diluted to 10× working stock in deionised water.
(§4) Assay Procedure for CDK1/cyclinB, CDK2/cyclinA. CDK2/cyclinE, CDK3/cyclinE, CDK5/p35. CDK6/cyclinD3:
(§5) In a final reaction volume of 25 μl, the enzyme (5-10 mU) is incubated with 8 mM MOPS pH 7.0, 0.2 mM EDTA, 0.1 mg/ml histone H1, 10 mM MgAcetate and [γ-^33P-ATP] (specific activity approx 500 cpm/pmol, concentration as required). The reaction is initiated by the addition of Mg^2+ [γ-^33P-ATP]. After incubation for 40 minutes at room temperature the reaction is stopped by the addition of 5 μl of a 3% phosphoric acid solution. 10 ml of the reaction is spotted onto a P30 filter mat and washed 3 times for 5 minutes in 75 mM phosphoric acid and once in methanol prior to drying and counting.

CDK3/cyclinE = CDK3/cyclinE (Homo sapiens, UniProt Q00526); test: CDK selectivity assay, CDK3; type: biochemical; conditions: read-out: IC50 against CDK 3
Description: as §1, §2, §3, §4, §5

CDK2/CyclinA = molecular target: T1, CDK2/CyclinA (Homo sapiens, UniProt P24941); test: CDK2 kinase inhibitory activity (Example 306, Protocol A or B); type: biochemical; conditions: for IC50: protocol of Example 306, read-out: IC50 (CDK inhibitory activity); for inhibition at 0.003 µM: read-out: % inhibition (CDK inhibitory activity)
T1 construct: purchased Upstate Biotechnology
Description: Compounds of the invention were tested for kinase inhibitory activity using either Protocol A or Protocol B.
1.7 μl of active CDK2/CyclinA (Upstate Biotechnology, 10 U/μl) is diluted in assay buffer (250 μl of 10× strength assay buffer (200 mM MOPS pH 7.2, 250 mM β-glycerophosphate, 50 mM EDTA, 150 mM MgCl2), 11.27 μl 10 mM ATP, 2.5 μl 1M DTT, 25 μl 100 mM sodium orthovanadate, 708.53 μl H2O), and 10 μl mixed with 10 μl of histone substrate mix (60 μl bovine histone H1 (Upstate Biotechnology, 5 mg/ml), 940 μl H2O, 35 μCi γ^33P-ATP) and added to 96 well plates along with 5 μl of various dilutions of the test compound in DMSO (up to 2.5%). The reaction is allowed to proceed for 5 hours before being stopped with an excess of ortho-phosphoric acid (30 μl at 2%).
(§6) γ^33P-ATP which remains unincorporated into the histone H1 is separated from phosphorylated histone H1 on a Millipore MAPH filter plate. The wells of the MAPH plate are wetted with 0.5% orthophosphoric acid, and then the results of the reaction are filtered with a Millipore vacuum filtration unit through the wells. Following filtration, the residue is washed twice with 200 μl of 0.5% orthophosphoric acid. Once the filters have dried, 25 μl of Microscint 20 scintillant is added, and then counted on a Packard Topcount for 30 seconds.
The % inhibition of the CDK2 activity is calculated and plotted in order to determine the concentration of test compound required to inhibit 50% of the CDK2 activity (IC50).
Activated CDK2/CyclinA (Brown et al, Nat. Cell Biol., 1, pp 438-443, 1999; Lowe, E. D., et al Biochemistry, 41, pp 15625-15634, 2002) is diluted to 125 pM in 2.5× strength assay buffer (50 mM MOPS pH 7.2, 62.5 mM O-glycerophosphate, 12.5 mM EDTA, 37.5 mM MgCl2, […], 2.5 mM DTT, 2.5 mM sodium orthovanadate, 0.25 mg/ml bovine serum albumin), and 10 fi mixed with 10 A1 of histone substrate mix (60 μl bovine histone H1 (Upstate Biotechnology, 5 mg/ml), 940 μl H2O, 35 μCi γ^33P-ATP) and added to 96 well plates along with 5 μl of various dilutions of the test compound in DMSO (up to 2.5%). The reaction is allowed to proceed for 2 to 4 hours before being stopped with an excess of ortho-phosphoric acid (5 μl at 2%).
as §6, with “20” for “25”

CDK5/p35 = CDK5/p35 (Homo sapiens, UniProt Q00535); test: CDK selectivity assay, CDK5; type: biochemical; conditions: read-out: IC50 against CDK 5
Description: as §1, §2, §3, §4, §5

GSK3β (human) = GSK3β (human) (Homo sapiens, UniProt P49841); test: Inhibitory activity against glycogen synthase kinase-3 (GSK-3); type: biochemical; conditions: read-out: IC50 against GSK30
Description: GSK3β (human) is diluted to a 10× working stock in 50 mM Tris pH 7.5, 0.1 mM EGTA, 0.1 mM sodium vanadate, 0.1% β-mercaptoethanol, 1 mg/ml BSA. One unit equals the incorporation of 1 nmol of phosphate per minute phospho-glycogen synthase peptide 2 per minute.
as §5, with “GSK3β” for “the enzyme”, “MOPS” for “MOPS pH”, “20 μM […](p)EDEEE (phospho GS2 peptide),” for “0.1 mg/ml histone H1,”, “Mg^2+[γ-^33P-ATP].” for “Mg^2+ [γ-^33P-ATP].”, “μl” for “ml”, “50” for “75”

HCT-116 cell line = test: Anti-proliferative activity, inhibition of cell growth (Alamar Blue assay); type: cell-based; conditions: Homo sapiens, 72 hours with compound
Description: The anti-proliferative activity of the compounds of the invention has been determined by measuring inhibition of cell growth in the HCT-116 cell line.
The anti-proliferative activities of compounds of the invention were determined by measuring the ability of the compounds to inhibition of cell growth in a number of cell lines. Inhibition of cell growth was measured using the Alamar Blue assay (Nociari, M. M, Shalev, A., Benias, P., Russo, C. Journal of Immunological Methods 1998, 213, 157-167). The method is based on the ability of viable cells to reduce resazurin to its fluorescent product resorufin. For each proliferation assay cells were plated onto 96 well plates and allowed to recover for 16 hours prior to the addition of inhibitor compounds for a further 72 hours. At the end of the incubation period 10% (v/v) Alamar Blue was added and incubated for a further 6 hours prior to determination of fluorescent product at […]. In the case of the non-proliferating cell assay cells were maintained at confluence for 96 hour prior to the addition of inhibitor compounds for a further 72 hours. The number of viable cells was determined by Alamar Blue assay as before. All cell lines were obtained from ECACC (European Collection of cell Cultures).

Chain of CDK3/cyclinE (Q00526 whole entry): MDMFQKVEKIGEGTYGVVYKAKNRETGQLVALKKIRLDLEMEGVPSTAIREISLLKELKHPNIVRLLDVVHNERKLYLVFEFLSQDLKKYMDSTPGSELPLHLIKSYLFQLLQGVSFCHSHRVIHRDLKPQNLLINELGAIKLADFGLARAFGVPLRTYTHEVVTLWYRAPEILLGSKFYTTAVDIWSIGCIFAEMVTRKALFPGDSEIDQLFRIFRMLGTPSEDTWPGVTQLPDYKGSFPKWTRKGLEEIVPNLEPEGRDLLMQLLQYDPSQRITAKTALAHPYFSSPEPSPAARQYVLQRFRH
Chain of CDK3/cyclinE (P24864 whole entry partner): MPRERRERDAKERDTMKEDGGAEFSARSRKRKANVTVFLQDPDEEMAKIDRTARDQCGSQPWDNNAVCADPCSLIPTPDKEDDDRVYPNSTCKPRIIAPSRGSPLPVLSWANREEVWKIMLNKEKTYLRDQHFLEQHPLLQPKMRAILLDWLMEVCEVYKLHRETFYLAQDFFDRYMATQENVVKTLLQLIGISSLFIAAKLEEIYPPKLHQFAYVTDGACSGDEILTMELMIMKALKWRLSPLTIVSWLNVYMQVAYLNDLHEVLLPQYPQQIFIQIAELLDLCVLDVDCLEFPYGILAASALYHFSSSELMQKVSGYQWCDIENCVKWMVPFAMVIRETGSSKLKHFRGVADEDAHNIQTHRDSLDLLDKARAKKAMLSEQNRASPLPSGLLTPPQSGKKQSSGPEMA
Chain of CDK5/p35 (Q00535 whole entry): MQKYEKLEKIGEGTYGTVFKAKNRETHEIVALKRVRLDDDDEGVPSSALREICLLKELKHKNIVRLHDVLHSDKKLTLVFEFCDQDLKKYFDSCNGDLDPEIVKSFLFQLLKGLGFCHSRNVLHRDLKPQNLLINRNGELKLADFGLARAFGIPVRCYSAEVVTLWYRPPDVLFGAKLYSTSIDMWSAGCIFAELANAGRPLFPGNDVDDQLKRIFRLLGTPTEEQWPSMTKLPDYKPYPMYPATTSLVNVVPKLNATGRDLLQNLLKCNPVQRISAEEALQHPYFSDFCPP
Chain of CDK5/p35 (Q15078 whole entry partner): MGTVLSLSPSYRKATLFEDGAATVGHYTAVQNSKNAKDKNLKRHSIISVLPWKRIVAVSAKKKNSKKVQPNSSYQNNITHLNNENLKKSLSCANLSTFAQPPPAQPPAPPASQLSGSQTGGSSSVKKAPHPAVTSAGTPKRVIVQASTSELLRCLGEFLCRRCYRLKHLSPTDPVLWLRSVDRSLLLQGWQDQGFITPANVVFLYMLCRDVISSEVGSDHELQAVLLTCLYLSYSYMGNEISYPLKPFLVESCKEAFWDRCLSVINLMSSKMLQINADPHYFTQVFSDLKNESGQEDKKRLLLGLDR
Chain of CDK1/cyclinB (P06493 whole entry): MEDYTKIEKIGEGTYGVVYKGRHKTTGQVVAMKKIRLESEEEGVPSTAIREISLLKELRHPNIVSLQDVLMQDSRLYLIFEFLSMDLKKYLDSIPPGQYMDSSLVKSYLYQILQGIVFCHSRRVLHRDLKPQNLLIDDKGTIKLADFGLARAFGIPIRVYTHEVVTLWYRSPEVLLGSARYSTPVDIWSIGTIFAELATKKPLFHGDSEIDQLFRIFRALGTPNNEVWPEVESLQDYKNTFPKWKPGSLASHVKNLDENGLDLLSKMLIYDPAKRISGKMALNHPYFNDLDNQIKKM
Chain of CDK1/cyclinB (P14635 whole entry partner): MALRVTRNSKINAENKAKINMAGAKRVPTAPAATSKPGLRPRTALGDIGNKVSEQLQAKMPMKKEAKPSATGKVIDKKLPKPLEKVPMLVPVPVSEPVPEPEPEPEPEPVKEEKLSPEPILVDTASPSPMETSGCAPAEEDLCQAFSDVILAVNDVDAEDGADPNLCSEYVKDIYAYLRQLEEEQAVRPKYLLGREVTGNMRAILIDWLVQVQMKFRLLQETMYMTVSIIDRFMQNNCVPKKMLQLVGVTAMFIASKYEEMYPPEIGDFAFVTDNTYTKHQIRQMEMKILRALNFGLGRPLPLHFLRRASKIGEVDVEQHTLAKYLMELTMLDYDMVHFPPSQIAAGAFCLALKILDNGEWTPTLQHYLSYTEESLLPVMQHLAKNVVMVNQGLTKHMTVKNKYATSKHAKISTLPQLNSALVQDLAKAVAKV
Chain of GSK3β (human) (P49841 whole entry): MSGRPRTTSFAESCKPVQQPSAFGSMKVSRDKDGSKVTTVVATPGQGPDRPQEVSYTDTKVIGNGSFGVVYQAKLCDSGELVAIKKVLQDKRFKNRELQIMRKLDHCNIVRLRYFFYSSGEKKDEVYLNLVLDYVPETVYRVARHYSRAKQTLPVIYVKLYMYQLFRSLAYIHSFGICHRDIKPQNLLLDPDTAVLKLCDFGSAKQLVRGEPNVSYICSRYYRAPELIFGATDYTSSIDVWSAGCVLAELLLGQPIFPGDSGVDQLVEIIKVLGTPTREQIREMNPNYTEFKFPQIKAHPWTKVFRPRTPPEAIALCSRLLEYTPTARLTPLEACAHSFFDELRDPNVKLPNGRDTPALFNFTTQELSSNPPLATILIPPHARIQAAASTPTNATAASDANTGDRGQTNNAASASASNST

| SMILES | IC50 (CDK1/cyclinB) [nM] | IC50 (CDK3/cyclinE) [nM] | IC50 (CDK5/p35) [nM] | inhibition at 0.003 µM (CDK2/CyclinA) [%] | other results |
| --- | --- | --- | --- | --- | --- |
| O=C(Nc1c[nH]nc1-c1nc2ccccc2[nH]1)c1c(F)cccc1F [Example 6, N-[3-(1H-Benzimidazol-2-yl)-1H-pyrazol-4-yl]-2,6-difluoro-benzamide] | < 1000 | < 1000 | < 1000 | – | IC50 (CDK2/CyclinA): 4.8 nM; IC50 (GSK3β (human)): < 1000 nM |
| COc1cc(F)c(C(=O)Nc2c[nH]nc2-c2nc3ccccc3[nH]2)c(F)c1 [Example 41] | < 1000 | < 1000 | < 1000 | – | – |
| O=C(Nc1c[nH]nc1-c1nc2c(CN3CCOCC3)cccc2[nH]1)c1c(F)cccc1F [Example 12, 2,6-Difluoro-N-[3-(4-morpholin-4-yl-methyl-1H-benzimidazol-2-yl)-1H-pyrazol-4-yl]-benzamide] | < 1000 | < 1000 | < 1000 | – | IC50 (GSK3β (human)): < 1000 nM |
| O=C(Nc1c[nH]nc1-c1nc2ccccc2[nH]1)c1c(Cl)cccc1Cl [Example 59] | – | – | – | 67 | – |
| Cc1ccc(C(=O)Nc2c[nH]nc2-c2nc3cc(C)c(C)cc3[nH]2)cc1 [Compound B, reference compound] | – | – | – | – | IC50 (CDK2/CyclinA): 3000 nM; IC50 (HCT-116 cell line): 5700 nM |
| CC(C)(C)NCc1cccc2[nH]c(-c3n[nH]cc3NC(=O)c3c(F)cccc3F)nc12 [Example 14, N-{3-[4-(tert-Butylamino-methyl)-1H-benzimidazol-2-yl]-1H-pyrazol-4-yl}-2,6-difluoro-benzamide] | < 1000 | < 1000 | < 1000 | – | – |
| CN1CCN(C(=O)c2ccc3[nH]c(-c4n[nH]cc4NC(=O)c4c(F)cccc4F)nc3c2)CC1 [Example 21, 2,6-Difluoro-N-{3-[5-(4-methyl-piperazine-1-carbonyl)-1H-benzimidazol-2-yl]-1H-pyrazol-4-yl}-benzamide] | < 1000 | < 1000 | < 1000 | – | – |
| CN1CCN(Cc2cccc3[nH]c(-c4n[nH]cc4NC(=O)c4c(F)cccc4F)nc23)CC1 [Example 13, 2,6-Difluoro-N-[3-(N-methyl-piperazinyl-4-ylmethyl-1H-benzimidazol-2-yl)-1H-pyrazol-4-yl]-benzamide] | < 1000 | < 1000 | < 1000 | – | – |
| O=C(Nc1c[nH]nc1-c1nc2ccccc2[nH]1)c1c(F)cc(F)cc1F [Example 56] | – | – | – | 58 | – |
| COc1cccc(F)c1C(=O)Nc1c[nH]nc1-c1nc2ccccc2[nH]1 [Example 44] | – | – | – | 57 | – |
| Cc1cccc(Cl)c1C(=O)Nc1c[nH]nc1-c1nc2ccccc2[nH]1 [Example 57] | – | – | – | 41 | – |
| O=C(Nc1c[nH]nc1-c1nc2ccccc2[nH]1)c1c(F)cccc1Cl [Example 43] | – | – | – | 52 | – |
| Cc1cc2nc(-c3n[nH]cc3NC(=O)c3c(F)cccc3F)[nH]c2cc1C [Example 73] | – | – | – | – | IC50 (CDK2/CyclinA): 4.6 nM; IC50 (HCT-116 cell line): 490 nM |
| O=C(Nc1c[nH]nc1-c1nc2ccccc2[nH]1)c1ccccc1 [Compound A, reference compound] | – | – | – | – | IC50 (CDK2/CyclinA): 96.7 nM |

From US7977477B2, “Benzimidazole derivatives and their use as protein kinase inhibitors” (Astex Therapeutics, Limited, priority 2003, dated 2011)
